Results from the supplement of paper PMC8671470.

Assays:
Conditions in all cases: 72 h
MV4-11 [1] = tested on: MV4-11
In short: (§1)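 The IC50 was derived from log-logistic dose–response fitting. Each of fifteen myeloid leukaemia cell lines, seeded in RPMI 1640 within its linear growth range, was exposed in 384-well plates to five tenfold doses (1 to 10,000 nM) in duplicate for 72 h at 37 °C and 5% CO2. Luminescent ATP viability readings were normalised to vehicle and to a positive control at 10 µM before four-parameter curve fitting.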

HL-60 [2] = tested on: HL-60
In short: as §1

BV-173 = tested on: BV-173
In short: as §1

SHI-1 [3] = tested on: SHI-1
In short: as §1

K-562 [4] = tested on: K-562
In short: as §1

THP-1 [5] = tested on: THP-1
In short: as §1

KCL-22 [6] = tested on: KCL-22
In short: as §1

KU-812 [7] = tested on: KU-812
In short: as §1

MOLM-13 [8] = tested on: MOLM-13
In short: as §1

ML-2 [9] = tested on: ML-2
In short: as §1

Mono-Mac-6 = tested on: Mono-Mac-6
In short: as §1

NOMO-1 [10] = tested on: NOMO-1
In short: as §1

HEL [11] = tested on: HEL
In short: as §1

LAMA-84 = tested on: LAMA-84
In short: as §1

KG-1 [12] = tested on: KG-1
In short: as §1

HL-60 [13] = experiment: cell viability (% survival relative to DMSO control); higher = less cytotoxic
In short: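 Area under the curve, where listed, was derived from four-parameter log-logistic fits with drc and PharmacoGx. These fits used CellTiter-Glo viability from HL-60 cells in RPMI 1640 with 10% FBS, normalised to DMSO wells and wells holding 10 μM proteasome inhibitor. The full library was rescreened on 384-well plates in duplicate at five tenfold concentrations, 1–10,000 nM, with DMSO or 100 nM of one of three metabolic inhibitors, for 72 h at 37 °C, 5% CO2.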

MV4-11 [14] = experiment: cell viability (% survival relative to DMSO control, bortezomib = 0%); higher = less cytotoxic
In short: (§2)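 Percent survival figures are means of duplicate wells. They were obtained by CellTiter-Glo luminescence after 10 AML and 5 CML cell lines spent 72 h at 37 °C with 5% CO2 in 384-well plates with compounds at 1, 10, 100, 1000 or 10000 nM. Vehicle was set to 100% and a 10 µM positive control to 0%.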

HL-60 [15] = experiment: as above
In short: as §2

SHI-1 [16] = experiment: as above
In short: as §2

K-562 [17] = experiment: as above
In short: as §2

THP-1 [18] = experiment: as above
In short: as §2

KCL-22 [19] = experiment: as above
In short: as §2

KU-812 [20] = experiment: as above
In short: as §2

MOLM-13 [21] = experiment: as above
In short: as §2

ML-2 [22] = experiment: as above
In short: as §2

NOMO-1 [23] = experiment: as above
In short: as §2

HEL [24] = experiment: as above
In short: as §2

KG-1 [25] = experiment: as above
In short: as §2

C=CC(=O)c1ccc(O)cc1 [4-Acryloylphenol]
Conditions | IC50 (cell viability) [µM]
BV-173 | 3.1
HEL [11] | 6.6
HL-60 [2] | > 10
K-562 [4] | > 10
KCL-22 [6] | 6.68
KG-1 [12] | > 10
KU-812 [7] | 7.96
LAMA-84 | > 10
ML-2 [9] | 9.62
MOLM-13 [8] | > 10
MV4-11 [1] | 4.22
Mono-Mac-6 | > 10
NOMO-1 [10] | 3.44
SHI-1 [3] | > 10
THP-1 [5] | > 10

cell viability [%], HL-60 [13]
Conditions | 0.001 µM | 0.01 µM | 0.1 µM | 1 µM | 10 µM
co-treatment: AZD3965 100 nM | 104 | 99.2 | 88.2 | 99.4 | 63.5
co-treatment: DMSO vehicle | 102 | 101.3 | 100 | 102 | 92.8
co-treatment: GSK2194069 100 nM | 104 | 110 | 96.21 | 105 | 87.5
co-treatment: pictilisib 100 nM | 108 | 103 | 104 | 108 | 58.5

cell viability [%]
Conditions | 1 nM | 10 nM | 100 nM | 1000 nM | 10000 nM
HEL [24] | 80 | 90.5 | 94.7 | 115 | 26.6
HL-60 [15] | 90 | 80.9 | 97.5 | 105 | 94.6
K-562 [17] | 86.2 | 85.5 | 101 | 114 | 66.7
KCL-22 [19] | 86.1 | 89.5 | 102 | 124 | 28.2
KG-1 [25] | 83.7 | 92.7 | 99.8 | 114 | 86.2
KU-812 [20] | 82.9 | 97.5 | 96.4 | 97.7 | 36.1
ML-2 [22] | 90 | 90.7 | 105 | 125 | 46.9
MOLM-13 [21] | 81.7 | 79.4 | 83.1 | 124 | 78.7
MV4-11 [14] | 91 | 89.9 | 94.3 | 137 | -1.55
NOMO-1 [23] | 88 | 92.6 | 107 | 102 | 2.21
SHI-1 [16] | 99.7 | 92.7 | 102 | 114 | 103
THP-1 [18] | 89.8 | 88.1 | 102 | 99.4 | 72.8

Cc1[nH]nc(C(F)(F)F)c1Cc1sc2c(c1C(=O)N1C[C@](C)(O)CO1)c(=O)n(C)c(=O)n2C(C)C [AZD3965]
Conditions | IC50 (cell viability) [µM]
BV-173 | 0.0362
HEL [11] | > 10
HL-60 [2] | > 10
K-562 [4] | 0.00627
KCL-22 [6] | > 10
KG-1 [12] | > 10
KU-812 [7] | > 10
LAMA-84 | > 10
ML-2 [9] | > 10
MOLM-13 [8] | > 10
MV4-11 [1] | > 10
Mono-Mac-6 | > 10
NOMO-1 [10] | > 10
SHI-1 [3] | > 10
THP-1 [5] | > 10

cell viability [%], HL-60 [13]
Conditions | 0.001 µM | 0.01 µM | 0.1 µM | 1 µM | 10 µM
co-treatment: AZD3965 100 nM | 92.7 | 98.1 | 96 | 92.2 | 102
co-treatment: DMSO vehicle | 102 | 95.8 | 97.9 | 94.6 | 99.6
co-treatment: GSK2194069 100 nM | 98 | 95.7 | 108 | 97.5 | 105
co-treatment: pictilisib 100 nM | 89.3 | 97.7 | 109 | 97.9 | 112

cell viability [%]
Conditions | 1 nM | 10 nM | 100 nM | 1000 nM | 10000 nM
HEL [24] | 84.2 | 108 | 116 | 111 | 109
HL-60 [15] | 79.9 | 95.6 | 111 | 113 | 115
K-562 [17] | 101 | 42 | 33.8 | 20 | 21.9
KCL-22 [19] | 89.7 | 112 | 125 | 102 | 108
KG-1 [25] | 114 | 118 | 124 | 132 | 127
KU-812 [20] | 91.7 | 120 | 112 | 89.8 | 98.9
ML-2 [22] | 106 | 116 | 114 | 108 | 101
MOLM-13 [21] | 113 | 120 | 120 | 105 | 93.5
MV4-11 [14] | 89 | 106 | 138 | 94.7 | 81.6
NOMO-1 [23] | 95.3 | 112 | 114 | 101 | 105
SHI-1 [16] | 103 | 101 | 109 | 101 | 96.7
THP-1 [18] | 107 | 104 | 113 | 99.5 | 102

O=c1cc(-c2ccccc2)oc2c1ccc1ccccc12 [Alpha-Naphtoflavone]
Conditions | IC50 (cell viability) [µM]
BV-173 | > 10
HEL [11] | > 10
HL-60 [2] | > 10
K-562 [4] | > 10
KCL-22 [6] | > 10
KG-1 [12] | > 10
KU-812 [7] | > 10
LAMA-84 | > 10
ML-2 [9] | > 10
MOLM-13 [8] | > 10
MV4-11 [1] | > 10
Mono-Mac-6 | > 10
NOMO-1 [10] | > 10
SHI-1 [3] | > 10
THP-1 [5] | > 10

cell viability [%], HL-60 [13]
Conditions | 0.001 µM | 0.01 µM | 0.1 µM | 1 µM | 10 µM
co-treatment: AZD3965 100 nM | 103 | 99 | 102 | 100.7 | 101.2
co-treatment: DMSO vehicle | 102 | 99.7 | 97.6 | 98.3 | 101
co-treatment: GSK2194069 100 nM | 98.2 | 101 | 110 | 99.9 | 98.3
co-treatment: pictilisib 100 nM | 96.8 | 101.3 | 99.3 | 93 | 90

cell viability [%]
Conditions | 1 nM | 10 nM | 100 nM | 1000 nM | 10000 nM
HEL [24] | 96.1 | 95.6 | 102 | 96.4 | 102
HL-60 [15] | 118 | 83.8 | 95.6 | 104 | 103
K-562 [17] | 95.8 | 101 | 109 | 90.2 | 108
KCL-22 [19] | 107 | 98.1 | 97.7 | 85.8 | 84.8
KG-1 [25] | 114 | 89.4 | 95.1 | 90.9 | 74.7
KU-812 [20] | 98.8 | 99.3 | 96.3 | 96 | 89.9
ML-2 [22] | 101 | 102 | 93.4 | 83.4 | 82.3
MOLM-13 [21] | 115 | 93.5 | 96.2 | 80.9 | 90.1
MV4-11 [14] | 106 | 109 | 107 | 89.6 | 97.1
NOMO-1 [23] | 99.7 | 94.3 | 108 | 95.6 | 95.2
SHI-1 [16] | 113 | 99.2 | 97.7 | 95.8 | 96.8
THP-1 [18] | 98.3 | 99.6 | 102 | 102 | 101
